Measured values reported in patent US5157021A, “Insulin derivatives and pharmaceutical preparations containing these derivatives” (Novo Nordisk A/S, priority 1985, dated 1992).

System: guinea pigs
Test: Hypoglycemia (blood glucose) in guinea pigs after subcutaneous injection of the insulin preparation
Assay type: in vivo, guinea pig
Procedure: 25 ml of a medium containing 1.6% (w/v) of glycerol. 0.33% (w/v) of m-cresol, 1/75M of sodium phosphate, pH value 7.3, were prepared. The solution was sterilized by filtration. 1.5 mg of human insulin-B21-methyl ester, prepared as described in Example 1, were suspended in 1.0 ml of medium.
4.5 mg of human insulin-A17-methyl ester were dissolved in 2.7 ml of 0.015M phosphoric acid. 21 mg of sodium chloride and 4.1 μlitres of an aqueous solution of 152 mM zinc chloride were added. The solution was sterilized by filtration. The pH value of the solution was adjusted to 8.0 under aseptic conditions with a sterile aqueous solution of sodium hydroxide. The pH value of the solution was then readjusted to 7.3 with sterile hydrochloric acid, and rhombohedral crystals with a mean size of 10 um were formed with gentle stirring at 21° C. The volume was adjusted to 3 ml with sterile water.
Moreover, a sterile solution of 3 ml of 13.5 mM phosphoric acid in admixture with 21 mg of sodium chloride and 9 μlitres of m-cresol was prepared, and the pH value was adjusted to 7.3 with a sterile aqueous solution of sodium hydroxide. The two solutions were combined.
15 mg of human insulin-A4-gln, obtained as described in Example 5, was dissolved in 10 ml of a solution containing 13.5 mM phosphoric acid, 0.3% m-cresol and 1.6% glycerol. The solution was sterilized by filtration, and the pH value was adjusted to 9,0 with a sterile aqueous solution of sodium hydroxide. The pH value was readjusted to 8.2 with a sterile solution of hydrochloric acid, and human insulin-A4-gln crystallized as rhombohedral crystals with gentle stirring.

[1] = dosage 18 μg/kg, crystalline zinc preparation pH 7.3

Substance: Human insulin-B21-methyl ester
- protracted insulin action compared with "Insulatard" (subcutaneous, zinc-free suspension 1.5 mg in 1.0 ml medium, pH 7.3): comparable to the hypoglycemia observed after injection of a standard protamin insulin preparation

Substance: Human insulin-A17-methyl ester
- biological activity indicated by area below the blood glucose curve, relative to human insulin [1]: nearly the same biological activity as human insulin
- hypoglycemia [1]: strongly protracted hypoglycemia
- protracted insulin action compared with "Insulatard" [1]: longer than the protracted action of the known injection preparation

Substance: Human insulin-A4-gln
- protracted hypoglycemic effect compared with "Insulatard" at 0.5 IU/kg (subcutaneous injection of crystalline suspension at 0.5 IU/kg): nearly identical both in timing and amplitude
